# Assay results as given in US9474790B2, “Stable, protracted GLP-1/glucagon receptor co-agonists for medical use” (Novo Nordisk A/S, priority 2013, dated 2016).
# Numbered stars: 1 amine (or outer) side, 2 acyl side, 3 side chain; on linkers, the order of the positions; unused ones are H or OH. Square brackets hold non-standard residues; d marks the D form. Side chains are listed from the residue outwards. Peptide text beside a SMILES is read from it. * marks the point of attachment. C18 diacid = O=C(O)CCCCCCCCCCCCCCCCC(=O)*; γGlu = O=C(O)[C@H](CCC(=O)[*:2])N[*:1]; Ac4c = NC1(C(=O)O)CCC1; AEEA = NCCOCCOCC(=O)O; Aib = CC(C)(N)C(=O)O
# Molecular target: T1, human glucagon receptor (Homo sapiens, UniProt P47871)
# T1 construct: expressed in transfected cells; host or cells: BHK cells (parent BHK570, CRE luciferase clone BHK/KZ10-20-48), clone pLJ6'-4-25
# T1 sequence (P47871 26-477): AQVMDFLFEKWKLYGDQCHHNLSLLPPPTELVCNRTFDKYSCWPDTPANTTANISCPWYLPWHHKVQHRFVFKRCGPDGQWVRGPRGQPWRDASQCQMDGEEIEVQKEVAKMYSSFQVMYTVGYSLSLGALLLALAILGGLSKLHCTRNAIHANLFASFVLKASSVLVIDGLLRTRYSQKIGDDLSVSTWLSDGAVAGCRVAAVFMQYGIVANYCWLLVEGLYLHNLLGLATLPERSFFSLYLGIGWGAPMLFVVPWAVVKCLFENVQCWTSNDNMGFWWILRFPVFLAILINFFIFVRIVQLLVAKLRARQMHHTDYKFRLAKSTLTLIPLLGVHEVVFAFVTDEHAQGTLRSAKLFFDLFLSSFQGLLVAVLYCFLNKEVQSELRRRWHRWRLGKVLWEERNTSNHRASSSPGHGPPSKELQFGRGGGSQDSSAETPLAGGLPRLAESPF
# Test: Glucagon receptor binding, 125I-glucagon displacement SPA on isolated membranes
# Conditions: displacement of 125I-glucagon from membranes; read-out: IC50 GlucR
# In short: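 Displacement IC50 derived by non-linear regression of SPA counts after 2 h, 25 °C incubation of compound with [125I]-glucagon (480 pM solution, 25 μl) and membranes of hGCGR-transfected BHK cells. Buffer was HEPES pH 7.4 with ovalbumin; serum albumin was held at 0.001% max or 0.2% final.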
row,SMILES,IC50
1,"CC(C)C[C@H](NC(=O)[C@H](Cc1ccc(O)cc1)NC(=O)[C@H](CCCCN)NC(=O)[C@H](CO)NC(=O)[C@H](CC(C)C)NC(=O)[C@H](CC(=O)O)NC(=O)[C@H](CO)NC(=O)[C@@H](NC(=O)[C@H](Cc1ccccc1)NC(=O)[C@@H](NC(=O)CNC(=O)[C@H](Cc1c[nH]cn1)NC(=O)C(C)(C)NC(=O)[C@@H](N)Cc1c[nH]cn1)[C@@H](C)O)[C@@H](C)O)C(=O)N[C@@H](CCC(=O)O)C(=O)N[C@@H](CO)C(=O)N[C@@H](CCCCN)C(=O)N[C@@H](CCCNC(=N)N)C(=O)N[C@@H](C)C(=O)N[C@@H](CCCNC(=N)N)C(=O)N[C@@H](CCC(=O)O)C(=O)N[C@@H](Cc1ccccc1)C(=O)N[C@H](C(=O)N[C@@H](CCC(N)=O)C(=O)N[C@@H](Cc1c[nH]c2ccccc12)C(=O)N[C@@H](CC(C)C)C(=O)N[C@@H](CC(C)C)C(=O)N[C@@H](CCCCNC(=O)CC[C@H](NC(=O)CC[C@H](NC(=O)COCCOCCNC(=O)COCCOCCNC(=O)CC[C@H](NC(=O)CCCCCCCCCCCCCCCCC(=O)O)C(=O)O)C(=O)O)C(=O)O)C(=O)N[C@H](C(N)=O)[C@@H](C)O)C(C)C [Example 27, N^ε28-[(4S)-4-carboxy-4-[[(4S)-4-carboxy-4-[[2-[2-[2-[[2-[2-[2-[[(4S)-4-carboxy-4-(17-carboxyheptadecanoylamino)butanoyl]amino]ethoxy]ethoxy]acetyl]amino]ethoxy]ethoxy]acetyl]amino]butanoyl]amino]butanoyl]-[Aib2,His3,Leu10,Glu15,Lys17,Arg20,Glu21,Leu27, Lys28]-Glucagon amide] (H-H[Aib]HGTFTSDLSKYLESKRAREFVQWLLK([γGlu-γGlu-AEEA-AEEA-γGlu-C18 diacid])T-NH2; N-terminus assumed)",0.7 nM
2,"CC(C)C[C@H](NC(=O)[C@H](Cc1ccc(O)cc1)NC(=O)[C@H](CCCCN)NC(=O)[C@H](CO)NC(=O)[C@H](CC(C)C)NC(=O)[C@H](CC(=O)O)NC(=O)[C@H](CO)NC(=O)[C@@H](NC(=O)[C@H](Cc1ccccc1)NC(=O)[C@@H](NC(=O)CNC(=O)[C@H](CCC(N)=O)NC(=O)C(C)(C)NC(=O)[C@@H](N)Cc1c[nH]cn1)[C@@H](C)O)[C@@H](C)O)C(=O)N[C@@H](CCC(=O)O)C(=O)N[C@@H](CO)C(=O)N[C@@H](CCCCN)C(=O)N[C@@H](CCCNC(=N)N)C(=O)N[C@@H](C)C(=O)N[C@@H](CCCNC(=N)N)C(=O)N[C@@H](CCC(=O)O)C(=O)N[C@@H](Cc1ccccc1)C(=O)N[C@H](C(=O)N[C@@H](CCC(N)=O)C(=O)N[C@@H](Cc1c[nH]c2ccccc12)C(=O)N[C@@H](CC(C)C)C(=O)N[C@@H](CC(C)C)C(=O)N[C@@H](CCCCNC(=O)CC[C@H](NC(=O)CC[C@H](NC(=O)[C@H](CO)NC(=O)[C@H](CCC(=O)O)NC(=O)[C@H](CO)NC(=O)CC[C@H](NC(=O)CC[C@H](NC(=O)CCCCCCCCCCCCCCCCC(=O)O)C(=O)O)C(=O)O)C(=O)O)C(=O)O)C(=O)N[C@H](C(N)=O)[C@@H](C)O)C(C)C [Example 54, N^ε28-[(4S)-4-carboxy-4-[[(4S)-4-carboxy-4-[[(2S)-2-[[(2S)-4-carboxy-2-[[(2S)-2-[[(4S)-4-carboxy-4-[[(4S)-4-carboxy-4-(17-carboxyheptadecanoylamino)butanoyl]amino]butanoyl]amino]-3-hydroxypropanoyl]amino]butanoyl]amino]-3-hydroxypropanoyl]amino]butanoyl]amino]butanoyl]-[Aib2,Leu10,Glu15,Lys17,Arg20,Glu21,Leu27,Lys28]-Glucagon amide] (H-H[Aib]QGTFTSDLSKYLESKRAREFVQWLLK([γGlu-γGlu-Ser-Glu-Ser-γGlu-γGlu-C18 diacid])T-NH2; N-terminus assumed)",1.7 nM
3,"CC(C)C[C@H](NC(=O)[C@H](CC(=O)O)NC(=O)[C@H](CC(C)C)NC(=O)[C@H](Cc1ccc(O)cc1)NC(=O)[C@H](CCCCN)NC(=O)[C@H](CO)NC(=O)[C@H](CC(C)C)NC(=O)[C@H](CC(=O)O)NC(=O)[C@H](CO)NC(=O)[C@@H](NC(=O)[C@H](Cc1ccccc1)NC(=O)[C@@H](NC(=O)CNC(=O)[C@H](CCC(N)=O)NC(=O)C1(NC(=O)[C@@H](N)Cc2c[nH]cn2)CCC1)[C@@H](C)O)[C@@H](C)O)C(=O)N[C@@H](CCCCN)C(=O)N[C@@H](CCCNC(=N)N)C(=O)N[C@@H](C)C(=O)N[C@@H](CCCNC(=N)N)C(=O)N[C@@H](CCC(=O)O)C(=O)N[C@@H](Cc1ccccc1)C(=O)N[C@H](C(=O)N[C@@H](CCC(N)=O)C(=O)N[C@@H](Cc1c[nH]c2ccccc12)C(=O)N[C@@H](CC(C)C)C(=O)N[C@@H](CC(C)C)C(=O)N[C@@H](CCCCNC(=O)CC[C@H](NC(=O)CC[C@H](NC(=O)COCCOCCNC(=O)COCCOCCNC(=O)CC[C@H](NC(=O)CC[C@H](NC(=O)CCCCCCCCCCCCCCCCC(=O)O)C(=O)O)C(=O)O)C(=O)O)C(=O)O)C(=O)N[C@H](C(N)=O)[C@@H](C)O)C(C)C [Example 47, N^ε28-[(4S)-4-carboxy-4-[[(4S)-4-carboxy-4-[[2-[2-[2-[[2-[2-[2-[[(4S)-4-carboxy-4-[[(4S)-4-carboxy-4-(17-carboxyheptadecanoylamino)butanoyl]amino]butanoyl]amino]ethoxy]ethoxy]acetyl]amino]ethoxy]ethoxy]acetyl]amino]butanoyl]amino]butanoyl]-[Acb2,Leu10,Leu16,Lys17,Arg20,Glu21,Leu27,Lys28]-Glucagon amide] (H-H[Ac4c]QGTFTSDLSKYLDLKRAREFVQWLLK([γGlu-γGlu-AEEA-AEEA-γGlu-γGlu-C18 diacid])T-NH2; N-terminus assumed)",1.5 nM
4,"CC(C)C[C@H](NC(=O)[C@H](Cc1ccc(O)cc1)NC(=O)[C@H](CCCCN)NC(=O)[C@H](CO)NC(=O)[C@H](CC(C)C)NC(=O)[C@H](CC(=O)O)NC(=O)[C@H](CO)NC(=O)[C@@H](NC(=O)[C@H](Cc1ccccc1)NC(=O)[C@@H](NC(=O)CNC(=O)[C@H](CCC(N)=O)NC(=O)C(C)(C)NC(=O)[C@@H](N)Cc1c[nH]cn1)[C@@H](C)O)[C@@H](C)O)C(=O)N[C@@H](CC(=O)O)C(=O)N[C@@H](CCCCNC(=O)CC[C@H](NC(=O)CC[C@H](NC(=O)COCCOCCNC(=O)COCCOCCNC(=O)CC[C@H](NC(=O)CCCCCCCCCCCCCCCCC(=O)O)C(=O)O)C(=O)O)C(=O)O)C(=O)N[C@@H](CCCNC(=N)N)C(=O)N[C@@H](CCCNC(=N)N)C(=O)N[C@@H](C)C(=O)N[C@@H](CCCNC(=N)N)C(=O)N[C@@H](CCC(=O)O)C(=O)N[C@@H](Cc1ccccc1)C(=O)N[C@H](C(=O)N[C@@H](CCC(N)=O)C(=O)N[C@@H](Cc1c[nH]c2ccccc12)C(=O)N[C@@H](CC(C)C)C(=O)N[C@@H](CC(C)C)C(=O)N[C@@H](CC(N)=O)C(=O)N[C@H](C(N)=O)[C@@H](C)O)C(C)C [Example 10, N^ε16-[(4S)-4-carboxy-4-[[(4S)-4-carboxy-4-[[2-[2-[2-[[2-[2-[2-[[(4S)-4-carboxy-4-(17-carboxyheptadecanoylamino)butanoyl]amino]ethoxy]ethoxy]acetyl]amino]ethoxy]ethoxy]acetyl]amino]butanoyl]amino]butanoyl]-[Aib2,Leu10,Lys16,Arg20,Glu21,Leu27]-Glucagon amide] (H-H[Aib]QGTFTSDLSKYLDK([γGlu-γGlu-AEEA-AEEA-γGlu-C18 diacid])RRAREFVQWLLNT-NH2; N-terminus assumed)",1.2 nM
5,"CC(C)C[C@H](NC(=O)[C@H](Cc1ccc(O)cc1)NC(=O)[C@H](CCCCN)NC(=O)[C@H](CO)NC(=O)[C@H](CC(C)C)NC(=O)[C@H](CC(=O)O)NC(=O)[C@H](CO)NC(=O)[C@@H](NC(=O)[C@H](Cc1ccccc1)NC(=O)[C@@H](NC(=O)CNC(=O)[C@H](Cc1c[nH]cn1)NC(=O)C(C)(C)NC(=O)[C@@H](N)Cc1c[nH]cn1)[C@@H](C)O)[C@@H](C)O)C(=O)N[C@@H](CCC(=O)O)C(=O)N[C@@H](CO)C(=O)N[C@@H](CCCNC(=N)N)C(=O)N[C@@H](CCCNC(=N)N)C(=O)N[C@@H](C)C(=O)N[C@@H](CCCNC(=N)N)C(=O)N[C@@H](CCC(=O)O)C(=O)N[C@@H](Cc1ccccc1)C(=O)N[C@H](C(=O)N[C@@H](CCC(N)=O)C(=O)N[C@@H](Cc1c[nH]c2ccccc12)C(=O)N[C@@H](CC(C)C)C(=O)N[C@@H](CC(C)C)C(=O)N[C@@H](CCCCNC(=O)CC[C@H](NC(=O)COCCOCCNC(=O)COCCOCCNC(=O)CC[C@H](NC(=O)CC[C@H](NC(=O)CCCCCCCCCCCCCCCCC(=O)O)C(=O)O)C(=O)O)C(=O)O)C(=O)N[C@H](C(N)=O)[C@@H](C)O)C(C)C [Example 30, N^ε28-[(4S)-4-carboxy-4-[[2-[2-[2-[[2-[2-[2-[[(4S)-4-carboxy-4-[[(4S)-4-carboxy-4-(17-carboxyheptadecanoylamino)butanoyl]amino]butanoyl]amino]ethoxy]ethoxy]acetyl]amino]ethoxy]ethoxy]acetyl]amino]butanoyl]-[Aib2,His3,Leu10,Glu15,Arg20,Glu21,Leu27,Lys28]-Glucagon amide] (H-H[Aib]HGTFTSDLSKYLESRRAREFVQWLLK([γGlu-AEEA-AEEA-γGlu-γGlu-C18 diacid])T-NH2; N-terminus assumed)",0.5 nM
